From US20040248992A1, “Method and composition for inhibiting arteriosclerosis” (KANEKA CORPORATION, priority 2000, published 2004) come the findings set out here.

The test system of series [1] is plasma low-density lipoprotein (LDL). As to the kind of experiment: Antioxidant activity of plasma LDL (lag time of copper-induced conjugated diene formation) in hamsters on high-fat diet. The format is in vivo. Conditions: 1% (w/v) solution in olive oil plus pravastatin 10 mg/kg orally for 4 consecutive days, LDL 40 μg protein/mL, copper ion 1 μM, 234 nm, n = 3. Here is the method:
Hamsters were fed on a high-fat diet containing 1.5% of cholesterol for 1 week and, then, dosed orally with a 1% (w/v) solution of either the oxidized or the reduced coenzyme Q10 in olive oil and 10 mg of pravastatin per kg body weight for 4 consecutive days. After overnight fasting, the plasma was collected, the plasma LDL was separated by density-gradient centrifugation method, and as a marker of LDL antioxidant activity, the lag time was measured. The lag time is defined herein as the value found by adding a copper ion (1 μM) to LDL (40 μg protein/mL) and monitoring at 234 nm the time course of conjugated diene structure of oxidized fat/fatty acid resulting from oxidation to determine the time interval until a sharp increase had begun in the conjugated diene concentration.

The nature of series [2]: Plasma level of the reduced coenzyme Q10 in hamsters on high-fat diet (HPLC). It is filed as in vivo. The protocol: Hamsters were fed on a high-fat diet containing 1.5% of cholesterol for one week and, then, a 1% (w/v) solution of either the oxidized or the reduced coenzyme Q10 in olive oil was administered orally for 4 consecutive days. After overnight fasting, the plasma was collected and the reduced coenzyme Q10 in the plasma was assayed by HPLC.

With `COC1=C(OC)C(=O)C(C/C=C(\C)CC/C=C(\C)CC/C=C(\C)CC/C=C(\C)CC/C=C(\C)CC/C=C(\C)CC/C=C(\C)CC/C=C(\C)CC/C=C(\C)CCC=C(C)C)=C(C)C1=O` [oxidized coenzyme Q10], the “Lag time (LDL antioxidant activity)” value in series [1] came out at 25 ± 8 min. Moreover, in series [2] (hamster, in vivo, po, 4 days), the “Gain in reduced coenzyme Q10 in plasma” value was found to be 10.1 ng/mL and the “Gain in reduced coenzyme Q10 in plasma, relative to oxidized coenzyme Q10 group (100%)” value is listed as 100%.
Turning to `COc1c(O)c(C)c(C/C=C(\C)CC/C=C(\C)CC/C=C(\C)CC/C=C(\C)CC/C=C(\C)CC/C=C(\C)CC/C=C(\C)CC/C=C(\C)CC/C=C(\C)CCC=C(C)C)c(O)c1OC` [reduced coenzyme Q10], the “Lag time (LDL antioxidant activity)” value in series [1] turned out to be 44 ± 9 min. The “Gain in reduced coenzyme Q10 in plasma” value in series [2] (hamsters on high-fat diet (1.5% cholesterol, 1 week), 1% (w/v) solution in olive oil orally for 4 consecutive days, plasma after overnight fasting, n = 3) was determined as 14.4 ng/mL. Moreover, the “Gain in reduced coenzyme Q10 in plasma, relative to oxidized coenzyme Q10 group (100%)” value in series [2] (hamsters on high-fat diet, 1% (w/v) solution in olive oil orally for 4 consecutive days, n = 3) was 143%.
